The assay has as its target human IDO1 (Homo sapiens, UniProt P14902). In words: Assessment of human IDO-1 inhibitory activity in Hela cells (Interferon-gamma stimulated HeLa cells, Ehrlich reagent, absorbance 490 nm). The format is cell-based. Details: endogenous in cells; host or cells: HeLa cells stimulated with interferon-gamma. The conditions noted are these: Hela Human IDO-1 cellular assay. In short, it runs like this: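 IDO activity induced by 18 h IFN-γ (human 10 ng/ml or murine 5 ng/ml, final) after 1 h compound pre-treatment of HeLa cells at 37 °C. Supernatant kynurenine detected via Ehrlich reagent absorbance at 490 nm following 3% TCA at 50 °C; IC50 set against no-IFN-γ and untreated-stimulated controls.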

Here are results for 39 molecules from patent US9790169B2, “IDO inhibitors” (BRISTOL-MYERS SQUIBB COMPANY, priority 2015, dated 2017).

pIC50: −log10 of the molar value. “And” between values parts separate entries of the source, which are not always exact repeats. Identical values can stand only once. Bounds are passed on as bounds.

Chain of human IDO1 (P14902 whole entry): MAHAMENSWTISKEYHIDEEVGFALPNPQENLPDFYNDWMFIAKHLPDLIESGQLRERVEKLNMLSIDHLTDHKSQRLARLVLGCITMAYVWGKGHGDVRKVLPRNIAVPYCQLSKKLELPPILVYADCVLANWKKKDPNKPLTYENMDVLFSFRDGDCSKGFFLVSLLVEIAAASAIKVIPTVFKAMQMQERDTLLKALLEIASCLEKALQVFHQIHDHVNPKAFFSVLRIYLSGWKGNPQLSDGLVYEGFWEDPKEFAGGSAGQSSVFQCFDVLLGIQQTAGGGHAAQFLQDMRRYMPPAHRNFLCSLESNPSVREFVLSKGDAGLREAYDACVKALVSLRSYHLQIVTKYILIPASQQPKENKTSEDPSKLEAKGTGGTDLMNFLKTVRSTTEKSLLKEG

The pIC50 is −log10 of the IC50, conventionally taken in molar units. The low end stands for a large IC50, the high end for a small IC50. With `CCOc1ncc(Nc2cc([C@H](COC)CC(=O)O)ccc2N2CCOCC2CC)cn1` (single isomer, unassigned) [Example 1291], the pIC50 was below 7.30.

Regarding `CCC1COCCN1c1ccc([C@H](COC)CC(=O)O)cc1Nc1ccc(Cl)cc1` (single isomer, unassigned) [Example 1292], the pIC50 is above 7.30.

`CCC1COCCN1c1ccc([C@H](COC)CC(=O)O)cc1Nc1ccc(F)cc1` (single isomer, unassigned) [Example 1293] had a pIC50 below 7.30.

`CCC1COCCN1c1ccc([C@H](COC)CC(=O)O)cc1Nc1ccc(F)cn1` (single isomer, unassigned) [Example 1294] showed a negative-log IC50 (pIC50) below 7.30.

For `CCC1COCCN1c1ccc([C@@H](COC)CC(=O)O)cc1Nc1ccc(C#N)cc1` (single isomer, unassigned) [Example 1295], the pIC50 was above 7.30.

Take `CCC1COCCN1c1ccc([C@@H](COC)CC(=O)O)cc1Nc1ccc(Cl)cc1` (single isomer, unassigned) [Example 1300]: the pIC50 was above 7.30.

`CCC1COCCN1c1ccc([C@@H](COC)CC(=O)O)cc1Nc1ccc(F)cc1` (single isomer, unassigned) [Example 1301] showed a negative logarithm of the IC50 (pIC50) below 7.30.

As for `CCC1COCCN1c1ccc([C@@H](COC)CC(=O)O)cc1Nc1ccc(F)cn1` (single isomer, unassigned) [Example 1302], the pIC50 was below 7.30.

The molecule `CCC1COCCN1c1ccc([C@H](COC)CC(=O)O)cc1Nc1ccc(C#N)cc1` (single isomer, unassigned) [Example 1303] had a pIC50 above 7.30.

`CCC1COCCN1c1ccc([C@H](COC)CC(=O)O)cc1Nc1ccc(C#N)c(F)c1` (single isomer, unassigned) [Example 1304] showed a pIC50 above 7.30.

In turn, `CCC1COCCN1c1ccc([C@H](COC)CC(=O)O)cc1Nc1ccc(F)cc1` (single isomer, unassigned) [Example 1309] had a negative logarithm of the IC50 (pIC50) above 7.30.

As to `COCC(CC(=O)O)c1ccc(N2CCOC(C)C2)c(Nc2ccc(C#N)cc2)c1` (single isomer, unassigned) [Example 1312, 3-(3-((4-cyanophenyl)amino)-4-(2-methylmorpholino)phenyl)-4-methoxybutanoic acid], the pIC50 is below 7.30.

On to `COCC(CC(=O)O)c1ccc(N2CCOC(C)C2)c(NC(=O)Nc2ccc(Cl)cc2F)c1` (single isomer, unassigned) [Example 1314 D1, 3-(3-(3-(4-Chloro-2-fluorophenyl)ureido)-4-(2-methylmorpholino)phenyl)-4-methoxybutanoic acid], for which the negative logarithm of the IC50 (pIC50) was below 7.30.

For `COCC(CC(=O)O)c1ccc(N2CCOC(C)(C)C2)c(Nc2ccc(Cl)cc2)c1` (single isomer, unassigned) [Example 1315 E1, 3-(3-((4-Chlorophenyl)amino)-4-(2,2-dimethylmorpholino)phenyl)-4-methoxybutanoic acid], the pIC50 was below 7.30.

With `COCC(CC(=O)O)c1ccc(N2CCOC(C)(C)C2)c(Nc2ccc(C#N)cc2)c1` (single isomer, unassigned) [Example 1316, 3-(3-((4-cyanophenyl)amino)-4-(2,2-dimethylmorpholino)phenyl)-4-methoxybutanoic acid], the negative logarithm of the IC50 (pIC50) is below 7.30.

Consider `COCC(CC(=O)O)c1ccc(N2CCOC(C)(C)C2)c(NC(=O)Nc2ccc(Cl)cc2F)c1` (single isomer, unassigned) [Example 1318 E1, 3-(3-(3-(4-Chloro-2-fluorophenyl)ureido)-4-(2,2-dimethylmorpholino)phenyl)-4-methoxybutanoic acid], for which the pIC50 is below 7.30.

Turning to `CCC(CC(=O)O)c1ccc(N2CCOC(C)(C)C2)c(Nc2ccc(Cl)cc2)c1` (single isomer, unassigned) [Example 1319 E1, 3-(3-((4-Chlorophenyl)amino)-4-(2,2-dimethylmorpholino)phenyl)pentanoic acid], the negative-log IC50 (pIC50) is above 7.30.

Consider `CCC(CC(=O)O)c1ccc(N2CCOC(C)(C)C2)c(Nc2ccc(C#N)cc2)c1` (single isomer, unassigned) [Example 1320, 3-(3-((4-cyanophenyl)amino)-4-(2,2-dimethylmorpholino)phenyl)pentanoic acid], for which the negative-log IC50 (pIC50) is < 7.30 and > 7.30.

Molecule `CCC(CC(=O)O)c1ccc(N2CCOC(C)(C)C2)c(NC(=O)Nc2ccc(Cl)cc2F)c1` (single isomer, unassigned) [Example 1322 E1, 3-(3-(3-(4-Chloro-2-fluorophenyl)ureido)-4-(2,2-dimethylmorpholino)phenyl)pentanoic acid] showed a pIC50 below 7.30.

The molecule `CCOc1ncc(Nc2cc([C@H](CC)CC(O)C(F)(F)F)ccc2N(CC)C2CCOCC2)cn1` (single isomer, unassigned) [Example 1336 D1] had a negative logarithm of the IC50 (pIC50) above 7.30.

In turn, `CCOc1ncc(Nc2cc([C@@H](CC)CC(C)(C)O)ccc2N(CC)C2CCOCC2)cn1` (single isomer, unassigned) [Example 1345] had a negative logarithm of the IC50 (pIC50) below 7.30.

`CCOc1ncc(Nc2cc(C(CC)CC(C)(C)O)ccc2N2CCC(c3ccccc3)CC2)cn1` (single isomer, unassigned) [Example 1349, 4-(3-((2-Ethoxypyrimidin-5-yl)amino)-4-(4-phenylpiperidin-1-yl)phenyl)-2-methylhexan-2-ol] had a pIC50 below 7.30.

Regarding `COCC(CC(=O)O)c1ccc(N2CCC(c3ccccc3)CC2)c(Nc2ccc(C#N)cc2)c1` (single isomer, unassigned) [Example 1350 E1, 3-(3-((4-Cyanophenyl)amino)-4-(4-phenylpiperidin-1-yl)phenyl)-4-methoxybutanoic acid], the negative logarithm of the IC50 (pIC50) was above 8.30.

Regarding `CCOc1ncc(Nc2cc(C(COC)CC(=O)O)ccc2N2CCC(c3ccccc3)CC2)cn1` (single isomer, unassigned) [Example 1351, 3-(3-((2-ethoxypyrimidin-5-yl)amino)-4-(4-phenylpiperidin-1-yl)phenyl)-4-methoxybutanoic acid], the negative-log IC50 (pIC50) is above 7.30.

Molecule `CCOc1ncc(Nc2cc(C(COC)CC(=O)O)ccc2N2CCC(c3ccccc3)CC2)cn1` (single isomer, unassigned) [Example 1354, 3-(3-((2-ethoxypyrimidin-5-yl)amino)-4-(4-phenylpiperidin-1-yl)phenyl)-4-methoxybutanoic acid] showed a negative logarithm of the IC50 (pIC50) above 8.30.

In turn, `COCC(CC(=O)O)c1ccc(N2CCC(c3ccccc3)CC2)c(NC(=O)Nc2ccc(Cl)cc2F)c1` (single isomer, unassigned) [Example 1357 E1, 3-(3-(3-(4-Chloro-2-fluorophenyl)ureido)-4-(4-phenylpiperidin-1-yl)phenyl)-4-methoxybutanoic acid] showed a pIC50 below 7.30.

In turn, `COCC(CC(=O)O)c1ccc(N2CCC(c3ccccc3)CC2)c(NC(=O)Nc2ccc(Cl)cc2F)c1` (single isomer, unassigned) [Example 1357 E2, 3-(3-(3-(4-Chloro-2-fluorophenyl)ureido)-4-(4-phenylpiperidin-1-yl)phenyl)-4-methoxybutanoic acid] had a pIC50 above 7.30.

In turn, `CC[C@@H](CC(=O)O)c1ccc(N(CC)C2CCOCC2)c(Nc2cnc(C)nc2)c1` (single isomer, unassigned) [Example 1361] had a pIC50 above 8.30.

Consider `CCc1ncc(Nc2cc([C@@H](CC)CC(=O)O)ccc2N(CC)C2CCOCC2)cn1` (single isomer, unassigned) [Example 1362], for which the negative-log IC50 (pIC50) is above 8.30.

In turn, `CC[C@H](CC(=O)O)c1ccc(N(CC)C2CCOCC2)c(Nc2cnc(C)nc2)c1` (single isomer, unassigned) [Example 1363] gave a pIC50 above 8.30.

`CCc1ncc(Nc2cc([C@H](CC)CC(=O)O)ccc2N(CC)C2CCOCC2)cn1` (single isomer, unassigned) [Example 1364]: the negative logarithm of the IC50 (pIC50) is above 8.30.

Consider `CCOc1ncc(Nc2cc([C@H](CC)CC(C)(C)O)ccc2N(CC)C2CCOCC2)cn1` (single isomer, unassigned) [Example 1368], for which the pIC50 is below 7.30.

With `CCN(c1ccc([C@@H](COC)CC(=O)O)cc1Nc1ccc(C#N)cc1)C1CCOCC1` (stereo in doubt) [compound 349, 3-(3-((4-Cyanophenyl)amino)-4-(ethyl(tetrahydro-2H-pyran-4-yl)amino)phenyl)-4-methoxybutanoic acid], the pIC50 is above 8.30.

The molecule `CCN(c1ccc(C(C)(C)CC(=O)O)cc1Nc1ccc(C#N)cc1)C1CCC(C)(O)CC1` (stereo not drawn) [Example 4, 3-(3-((4-cyanophenyl)amino)-4-(ethyl(4-hydroxy-4-methylcyclohexyl)amino)phenyl)-3-methylbutanoic acid] had a pIC50 above 7.30.

In turn, `COCCN(c1ccc(C(C)(C)CC(=O)O)cc1Nc1ccc(Cl)cc1)C1CCOCC1` [Example 15, 3-(3-((4-Chlorophenyl)amino)-4-((2-methoxyethyl)(tetrahydro-2H-pyran-4-yl)amino)phenyl)-3-methylbutanoic acid] showed a pIC50 above 8.30.

With `COCCN(c1ccc(C(C)(C)CC(=O)O)cc1Nc1ccc(C#N)cc1)C1CCOCC1` [Example 16, 3-(3-((4-cyanophenyl)amino)-4-((2-methoxyethyl)(tetrahydro-2H-pyran-4-yl)amino)phenyl)-3-methylbutanoic acid], the pIC50 was above 8.30.

The molecule `CCOc1ncc(Nc2cc(C(C)(C)CC(=O)O)ccc2N(CCOC)C2CCOCC2)cn1` [Example 17, 3-(3-((2-ethoxypyrimidin-5-yl)amino)-4-((2-methoxyethyl)(tetrahydro-2H-pyran-4-yl)amino)phenyl)-3-methylbutanoic acid] had a pIC50 below 7.30.

As to `COCCN(c1ccc(C(C)(C)CC(=O)O)cc1NC(=O)Nc1ccc(C)cc1)C1CCOCC1` [Example 18, 3-(4-((2-Methoxyethyl)(tetrahydro-2H-pyran-4-yl)amino)-3-(3-(p-tolyl)ureido)phenyl)-3-methylbutanoic acid], the pIC50 is below 7.30.

`COCCN(c1ccc(C(C)(C)CC(=O)O)cc1NC(=O)Nc1ccc(C#N)cc1)C1CCOCC1` [Example 19, 3-(3-(3-(4-cyanophenyl)ureido)-4-((2-methoxyethyl)(tetrahydro-2H-pyran-4-yl)amino)phenyl)-3-methylbutanoic acid] showed a negative-log IC50 (pIC50) below 7.30.
